The values that follow come from patent US7723523B2, “Tetrahydropyridothiophenes” (4SC AG, priority 2004, dated 2010).

In assay [1] the test system is RKO colon adenocarcinoma cells (RKOp27) arrested by expression of ectopic p27Kip1. The assay is described as follows: Alamar Blue cell viability assay on RKOp27 cells arrested by Ponasterone A-induced p27Kip1 (cell cycle specific mode of action). The class given is cell-based. As to conditions: Homo sapiens, RKOp27, 72 h, cells arrested by p27Kip1 induced with 10 μM Ponasterone A, 72 hours incubation, read-out: IC50 RKO p27 arrested. The procedure, abridged: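 Viability measured by Alamar Blue fluorescence (ex 544, em 590 nm) after 72 h, 37 °C compound exposure in quadruplicate, normalized to untreated cells as 100%. Cells were p27Kip1-arrested RKOp27, induced with 10 μM Ponasterone A at seeding; compound added 24 h later.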
For orientation: The colour change of resazurin is a common sign of viable cells or microbes.

For assay [2], the system named is RKO (RKOp27) human colon adenocarcinoma cells. The assay is described as follows: Alamar Blue cell viability assay, anti-proliferative/cytotoxic activity on proliferating RKOp27 cells. The class given is cell-based. As to conditions: absence of Ponasterone A, 72 hours incubation, read-out: IC50 RKO p27 proliferating. Summed up:
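RKOp27 subclone of RKO cells, 4000/well in DMEM with 10% FCS, was treated 24 h after seeding with semi-log compound dilutions in quadruplicate for 72 h at 37 °C, 5% CO2. Alamar Blue fluorescence (ex 544/em 590 nm) was read as % viability of untreated cells, and IC50 was taken from concentration-effect curves.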

Broadly, the IC50 is the concentration that gives 50% inhibition. For `COCCOC(=O)N1CCc2c(sc(NC(=O)/C=C/c3ccccc3OC)c2C#N)C1` [Example 137, 3-Cyano-2-[(E)-3-(2-methoxy-phenyl)-allanoylamino]-4,7-dihydro-5H-thieno[2,3-c]pyridine-6-carboxylic acid 2-methoxy-ethyl ester], the IC50 in assay [1] was at least 100 µM; in assay [2] it was at most 2 µM.
